Source: patent publication US20120020940A1, “ANTIMICROBIAL PEPTIDES” (Helmholtz Zentrum München Deutsches Forschungszentrum Für …, priority 2008, published 2012)
No end group written: not given here.

Columns and labels:
[1] = test system: Pseudomonas syringae pv. syringae; assay: MIC and lethal concentration (Example 3); type: cell-based; conditions: Table 2; for MIC (>90% inhibition): 1-2 days at 25° C.; for LC, lethal concentration (100% inhibition): at least 4 days of incubation
Description: (§1) In-vitro inhibition assays were performed in sterile flat-bottom 96-well plates (Greiner bio-one, Frickenhausen). Antimicrobial peptides were dissolved in 0.01% acetic acid containing 0.2% BSA (500 μg/ml), filter sterilized and stored at −20° C. For inhibition assays dilutions of peptides ranging from 5 to 200 μg/ml were prepared and 10 μl (antibacterial assay) or 20 μl (antifungal assay) of each concentration was loaded per well.
(§2) Bacteria colonies from overnight agar plate cultures were resuspended into 5 ml LB-medium or HPG-medium (OD600 nm=0.08-0.1) and diluted into LB-medium/HPG-medium (1:100). 90 μl of this suspension containing about 10^5-10^6 CFU/ml of tested bacteria were added to each well resulting in final peptide concentrations of 0, 0.5, 1, 2, 5, 10, and 20 μg/ml. […] The lowest concentration, in which there is no observable growth (>90% inhibition) is referred to as minimal inhibitory concentration (MIC). […] For each peptide concentration two identical inhibition assays were performed.

[2] = test system: Pseudomonas syringae pv. tomato; assay: MIC and lethal concentration (Example 3); type: cell-based; conditions: Table 2; for MIC (>90% inhibition): 1-2 days at 25° C.; for LC, lethal concentration (100% inhibition): at least 4 days of incubation
Description: as §1, §2

[3] = test system: Pseudomonas corrugata; assay: MIC and lethal concentration (Example 3); type: cell-based; conditions: Table 2; for MIC (>90% inhibition): 1-2 days at 25° C.; for LC, lethal concentration (100% inhibition): at least 4 days of incubation
Description: as §1, §2

[4] = test system: Pectobacterium carotovorum; assay: MIC and lethal concentration (Example 3); type: cell-based; conditions: Table 2; for MIC (>90% inhibition): 1-2 days at 25° C.; for LC, lethal concentration (100% inhibition): at least 4 days of incubation
Description: as §1, §2

[5] = test system: Clavibacter michiganensis; assay: MIC and lethal concentration (Example 3); type: cell-based; conditions: Table 2; for MIC (>90% inhibition): 1-2 days at 25° C.; for LC, lethal concentration (100% inhibition): at least 4 days of incubation
Description: as §1, §2

[6] = test system: Xanthomonas vesicatoria; assay: MIC and lethal concentration (Example 3); type: cell-based; conditions: Table 2; for MIC (>90% inhibition): 1-2 days at 25° C.; for LC, lethal concentration (100% inhibition): at least 4 days of incubation
Description: as §1, §2

[7] = test system: Botrytis cinerea; assay: MIC, antifungal in-vitro inhibition assay (Example 2); type: cell-based; conditions: Table 1
Description: as §1
(§3) Spores of fungi were collected by water washes of sporulating cultures grown on 2% malt extract agar and spore concentration was determined by microscopy. The concentration of the spores was adjusted to 1.5-2×10^3 spores/ml in 2% malt extract medium and 80 μl of fungal spores were added per well. The final peptide concentrations used in the fungal inhibition assays were […]. After overnight incubation at room temperature the plate were put on a rotary shaker (300 rpm) for further two days to ensure consistantly growth. Antifungal effects of the peptides were determined by a microplate reader (Alternaria, Fusarium) at OD590 nm or by visual screening of the plates (Botrytis, Cladosporium).
(§4) The lowest peptide concentration leading to complete inhibition of bacterial growth or spore germination/mycelial growth (minimal inhibition concentration, MIC) was determined for each organism-peptide combination. For each peptide concentration two identical inhibition assays were performed.

[8] = test system: Cladosporium herbarum; assay: as above; type: cell-based; conditions: Table 1
Description: as §1, §3, §4

[9] = test system: Alternaria alternata; assay: as above; type: cell-based; conditions: Table 1
Description: as §1, §3, §4

[10] = test system: Pseudomonas corrugata; conditions: Pseudomonas corrugata; overnight 25° C.; Table 1
[11] = test system: Clavibacter michiganensis sub. michiganensis; conditions: overnight 25° C., Table 1
[12] = test system: human erythrocytes; assay: Hemolytic activity, hemoglobin release; type: cell-based; conditions: 45 min at 37° C., Table 3
Description: The hemolytic activity of the peptides was evaluated by determining hemoglobin release of suspensions of fresh human erythrocytes at 405 nm. Human red blood cells were centrifuged and washed three times with Tris-buffer (10 mM Tris, 150 mM NaCl, pH 7.4). Eighty μl of human red blood cells (1.5×10^9/ml) were added to 20 μl of the peptides solution (peptides dissolved in 0.2% BSA, 0.01% HAc) in 96-well plates (Greiner bio-one, Frickenhausen) and incubated for 45 min at 37° C. The endconcentration of the peptides were 0, 20, 50, 100 and 200 μg/ml. After centrifugation (1500×g, 5 min, 20° C.) 30 μl aliquots of the supernatant were transferred to 96-well plates containing 100 μl water. Hemolysis was measured by absorbance at 405 nm with a microplate reader. 100% hemolysis were determined in 2% SDS. The hemolysis percentage was calculated using the following equation: % hemolysis=[(Abs405 nm in the peptide solution−Abs405 nm in peptides solvent)/(Abs405 nm in 2% SDS−Abs405 nm in peptide solvent)]×100.
Further hemolytic activities of the various peptides of the present invention may be taken from the table depicted in example 3, last row indicated as “Hemolytic activity”. In connection therewith, however, the concentrations are stated where at least 50% hemolysis was observed.

[13] = test system: Pectobacterium carotovorum sub. carotovorum; conditions: Pectobacterium carotovorum sub. carotovorum; overnight 25° C.; Table 1
[14] = test system: Pseudomonas syringae pv. syringae; conditions: Pseudomonas syringae pv. syringae; overnight 25° C.; Table 1
[15] = test system: Xanthomonas vesicatoria; conditions: Xanthomonas vesicatoria; overnight 25° C.; Table 1
[16] = test system: Pseudomonas syringae pv. tomato; conditions: Pseudomonas syringae pv. tomato; overnight 25° C.; Table 1

Substance | MIC (>90% inhibition) [1] | LC, lethal concentration (100% inhibition) [1] | MIC (>90% inhibition) [2] | LC, lethal concentration (100% inhibition) [2] | MIC (>90% inhibition) [3] | LC, lethal concentration (100% inhibition) [3] | MIC (>90% inhibition) [4] | LC, lethal concentration (100% inhibition) [4] | MIC (>90% inhibition) [5] | LC, lethal concentration (100% inhibition) [5] | MIC (>90% inhibition) [6] | LC, lethal concentration (100% inhibition) [6] | other results
LRIIRRILRRLI-NH2 [SP10-6] | 2.5/2.5 μg/ml | 2.5/2.5 μg/ml | 1.0/1.0 μg/ml | 1.0/1.0 μg/ml | 2.5/2.5 μg/ml | 2.5/2.5 μg/ml | 2.5 µg/mL | 5.0 µg/mL | 2.5/2.5 μg/ml | 2.5/2.5 μg/ml | 1.0/1.0 μg/ml | 1.0/1.0 μg/ml | 
LRFARRALRRLF-NH2 [SP10-9] | 0.25 µg/mL | 2.5 µg/mL | 0.25 µg/mL | 0.5 µg/mL | 0.5 µg/mL | 2.5 µg/mL | 2.5 µg/mL | 5.0 µg/mL | 1.0/1.0 μg/ml | 1.0/1.0 μg/ml | 1.0 µg/mL | 2.5 µg/mL | 
LRALAKALKHKL-NH2 [SP11, LRALAKALKHKL -NH2] |  |  |  |  |  |  |  |  |  |  |  |  | Minimal inhibition concentration (MIC) for complete inhibition of spore germination/mycelial growth [7]: >100 mg/L; Minimal inhibition concentration (MIC) for complete inhibition of spore germination/mycelial growth [8]: 20 mg/L; Minimal inhibition concentration (MIC) for complete inhibition of spore germination/mycelial growth [9]: >100 mg/L
LRFLKKILKKLF-NH2 [SP10-1] | 2.5/2.5 μg/ml | 2.5/2.5 μg/ml | 1.0/1.0 μg/ml | 1.0/1.0 μg/ml | 2.5/2.5 μg/ml | 2.5/2.5 μg/ml | 2.5 µg/mL | 5.0 µg/mL | 1.0 µg/mL | 2.5 µg/mL | 2.5/2.5 μg/ml | 2.5/2.5 μg/ml | 
LRFAKKALKKLF-NH2 [SP10-3] | 0.25 µg/mL | 2.5 µg/mL | 0.25/0.25 μg/ml | 0.25/0.25 μg/ml | 1.0 µg/mL |  | >10/>10 μg/ml | >10/>10 μg/ml | 2.5/2.5 μg/ml | 2.5/2.5 μg/ml | 2.5/2.5 μg/ml | 2.5/2.5 μg/ml | 
LRILRRLLRRLF-NH2 [SP10-7] | >10/>10 μg/ml | >10/>10 μg/ml | 0.5 µg/mL | 1.0 µg/mL | 2.5/2.5 μg/ml | 2.5/2.5 μg/ml | >10/>10 μg/ml | >10/>10 μg/ml | 5.0/5.0 μg/ml | 5.0/5.0 μg/ml | 5.0s/5.0^ μg/ml | 5.0s/5.0^ μg/ml | 
LRFIKKILKKLI-NH2 [SP10-4] | 0.25 µg/mL | 0.5 µg/mL | 1.0/1.0 μg/ml | 1.0/1.0 μg/ml | 2.5/2.5 μg/ml | 2.5/2.5 μg/ml | 2.5/2.5 μg/ml | 2.5/2.5 μg/ml | 0.25/0.25 μg/ml | 0.25/0.25 μg/ml | 0.1 µg/mL | 0.25 µg/mL | 
LLKALKKLLKKLL-NH2 [SP9] |  |  |  |  |  |  |  |  |  |  |  |  | Minimal inhibition concentration (MIC) for complete inhibition of bacterial growth [10]: >40 mg/L; Minimal inhibition concentration (MIC) for complete inhibition of spore germination/mycelial growth [7]: >100 mg/L; Minimal inhibition concentration (MIC) for complete inhibition of spore germination/mycelial growth [8]: 40 mg/L; Minimal inhibition concentration (MIC) for complete inhibition of spore germination/mycelial growth [9]: >100 mg/L; Minimal inhibition concentration (MIC) for complete inhibition of bacterial growth [11]: 10 mg/L; Hemolytic activity, concentration where at least 25% hemolysis was observed [12]: 50 µg/mL; Minimal inhibition concentration (MIC) for complete inhibition of bacterial growth [13]: >40 mg/L; Minimal inhibition concentration (MIC) for complete inhibition of bacterial growth [14]: 10 mg/L; Minimal inhibition concentration (MIC) for complete inhibition of bacterial growth [15]: 5 mg/L; Minimal inhibition concentration (MIC) for complete inhibition of bacterial growth [16]: 10 mg/L
LRIIKKILKKLI-NH2 [SP10-5] | 0.5/0.5 μg/ml | 0.5/0.5 μg/ml | 0.25 µg/mL | 0.5 µg/mL | 0.5 µg/mL | 2.5 µg/mL | 2.5 µg/mL | 10 µg/mL | 0.5/0.5 μg/ml | 0.5/0.5 μg/ml | 0.25 µg/mL | 0.5 µg/mL | 
LRFLRRILRRLL-NH2 [SP10-8] | 0.5/0.5 μg/ml | 0.5/0.5 μg/ml | 1.0/1.0 μg/ml | 1.0/1.0 μg/ml | 0.5 µg/mL | 1.0 µg/mL | 2.5 µg/mL | 5.0 µg/mL | 0.5/0.5 μg/ml | 0.5/0.5 μg/ml | 0.5/0.5 μg/ml | 0.5/0.5 μg/ml | 
LKALRKALKHLA-NH2 [SP12, LKALRKALKHLA -NH2] |  |  |  |  |  |  |  |  |  |  |  |  | Minimal inhibition concentration (MIC) for complete inhibition of bacterial growth [10]: >40 mg/L; Minimal inhibition concentration (MIC) for complete inhibition of spore germination/mycelial growth [7]: >100 mg/L; Minimal inhibition concentration (MIC) for complete inhibition of spore germination/mycelial growth [8]: 20 mg/L; Minimal inhibition concentration (MIC) for complete inhibition of spore germination/mycelial growth [9]: >100 mg/L; Minimal inhibition concentration (MIC) for complete inhibition of bacterial growth [11]: >40 mg/L; Hemolytic activity, concentration where at least 25% hemolysis was observed [12]: >200 µg/mL; Minimal inhibition concentration (MIC) for complete inhibition of bacterial growth [13]: >40 mg/L; Minimal inhibition concentration (MIC) for complete inhibition of bacterial growth [14]: 10 mg/L; Minimal inhibition concentration (MIC) for complete inhibition of bacterial growth [15]: 20 mg/L; Minimal inhibition concentration (MIC) for complete inhibition of bacterial growth [16]: 2.5 mg/L
